For three compounds, MIC results are on record in ChEMBL document CHEMBL1155191, “Simple dihydrosphyngosine analogues with potent activity against MDR-Mycobacterium tuberculosis” (2009).

For orientation: MIC means the least concentration at which growth counts as inhibited. Low readings indicate a more susceptible organism, high ones a less susceptible organism.

Common to all, as to assay type: functional
Experiment [1] has as its system Mycobacterium tuberculosis. As to the kind of experiment: Antimycobacterial activity against multidrug-resistant Mycobacterium tuberculosis 332 after 5 to 7 days by microplate alamar blue assay. (Resazurin is reduced to fluorescent resorufin, in cell work by metabolically active cells.)
Experiment [2] deals with Mycobacterium tuberculosis. As to the kind of experiment: Antimycobacterial activity against multidrug-resistant, pyrazinamide-sensitive Mycobacterium tuberculosis 366 after 5 to 7 days by microplate alamar blue assay.
The subject of experiment [3] is Mycobacterium tuberculosis. Put plainly: Antimycobacterial activity against multidrug-resistant Mycobacterium tuberculosis 528 after 5 to 7 days by microplate alamar blue assay.
In experiment [4] the test system is Mycobacterium tuberculosis. Put plainly: Antimycobacterial activity against multidrug-resistant Mycobacterium tuberculosis 411 after 5 to 7 days by microplate alamar blue assay.
In experiment [5] the test system is Mycobacterium tuberculosis. Put plainly: Antimycobacterial activity against multidrug-resistant Mycobacterium tuberculosis 160 after 5 to 7 days by microplate alamar blue assay.
In experiment [6] the test system is Mycobacterium tuberculosis. As to the kind of experiment: Antimycobacterial activity against multidrug-resistant, ethambutol-sensitive Mycobacterium tuberculosis 494 after 5 to 7 days by microplate alamar blue assay.
Experiment [7] relates to Mycobacterium tuberculosis. As to the kind of experiment: Antimycobacterial activity against multidrug-resistant Mycobacterium tuberculosis 535 after 5 to 7 days by microplate alamar blue assay.
Experiment [8] relates to Mycobacterium tuberculosis. Put plainly: Antimycobacterial activity against streptomycin, rifampicin, pyrazinamide-sensitive isoniazid, ethambutol-resistant Mycobacterium tuberculosis 363 after 5 to 7 days by microplate alamar blue assay.
Experiment [9] concerns Mycobacterium tuberculosis. Put plainly: Antimycobacterial activity against multidrug-resistant, streptomycin-sensitive Mycobacterium tuberculosis 429 after 5 to 7 days by microplate alamar blue assay.
Experiment [10] has as its system Mycobacterium tuberculosis. Put plainly: Antimycobacterial activity against multidrug-resistant Mycobacterium tuberculosis 331 after 5 to 7 days by microplate alamar blue assay.
Experiment [11] has as its system Mycobacterium tuberculosis. As to the kind of experiment: Antimycobacterial activity against multidrug-resistant, ethambutol-sensitive Mycobacterium tuberculosis 401 after 5 to 7 days by microplate alamar blue assay.

Values after ≈ are worked out from the molar mass of the structure shown.

Turning to `CCCCCCCCCCCCCCC(N)COCc1ccccc1` (stereo not drawn), the MIC came out at 36 µM (≈ 12.5 µg/mL) in experiment [1]; 4.5 µM (≈ 1.56 µg/mL) in experiment [2]; 18 µM (≈ 6.26 µg/mL) in experiment [3]; 4.5 µM (≈ 1.56 µg/mL) in experiment [4]; 9 µM (≈ 3.13 µg/mL) in [5]; 9 µM (≈ 3.13 µg/mL) in experiment [6]. Besides, the MIC in experiment [7] was 18 µM (≈ 6.26 µg/mL); in experiment [8], 18 µM (≈ 6.26 µg/mL); in experiment [9], 9 µM (≈ 3.13 µg/mL); in experiment [10] it was 9 µM (≈ 3.13 µg/mL); in experiment [11], 4.5 µM (≈ 1.56 µg/mL).
`CCCCCCCCCCCCCCC(COCc1ccccc1)N(CC)CC` (stereo not drawn): the minimal inhibitory concentration (MIC) worked out at 1.9 µM (≈ 0.767 µg/mL) in experiment [1]; 3.9 µM (≈ 1.57 µg/mL) in [2]; 15.5 µM (≈ 6.26 µg/mL) in experiment [3]; 7.7 µM (≈ 3.11 µg/mL) in [4]; 7.7 µM (≈ 3.11 µg/mL) in [5]; 7.7 µM (≈ 3.11 µg/mL) in experiment [6]. Moreover, the MIC was determined as 3.9 µM (≈ 1.57 µg/mL) in experiment [7]; 3.9 µM (≈ 1.57 µg/mL) in [8]; 7.7 µM (≈ 3.11 µg/mL) in [9]; 15.5 µM (≈ 6.26 µg/mL) in experiment [10]; 7.7 µM (≈ 3.11 µg/mL) in experiment [11].
Regarding `CCCCCCCCCCCCCCC(N)CN(CC)CC` (stereo not drawn), the minimum inhibitory concentration (MIC) in experiment [1] amounted to 40 µM (≈ 12.5 µg/mL); in experiment [2], 20 µM (≈ 6.25 µg/mL); in experiment [3] it was 40 µM (≈ 12.5 µg/mL); in [4] it was 40 µM (≈ 12.5 µg/mL); in experiment [5], 40 µM (≈ 12.5 µg/mL); in experiment [6] it was 40 µM (≈ 12.5 µg/mL). In addition, the MIC in experiment [7], in experiment [8], in experiment [9], in experiment [10] and in experiment [11] was 40 µM (≈ 12.5 µg/mL) in each case.
